Like-named read-outs stand apart in the source and are kept apart here.
Key:
CACO2 = experiment: MTT cytotoxicity assay, 72 h; format: cell-based, human; conditions: Homo sapiens, Caco-2, IC50 ± SD
Protocol: Cytotoxicity assays were performed by using the MTT reduction method as described in the literature [23, 37]. Briefly, cancer cell lines were plated in a flat-bottom 96-wells plate at 1 × 10^4 cells per well density. Then, the cells were incubated with synthetized compounds at different concentrations (from 0.1 to 100 µM) in 200 µL of 10% fetal bovine serum-RPMI or EMEM culture medium at 37 °C for 72 h. Then, 10 µL of MTT was added at a final concentration of 0.5 mg/mL, incubated at 37 °C for 4 h, and then solubilized with 10% sodium dodecyl sulphate (SDS) in 0.1 mM HCl and incubated overnight at 37 °C. Formazan formation was measured at 570 nm in a multi-well reader (StatFax 4200).

HL-60 = experiment: MTT cytotoxicity assay, 72 h; format: cell-based, human; conditions: for Selectivity Index (SI) MRC-5/HL-60: IC50 in MRC-5 / IC50 in HL-60
Protocol: (§1) In our study, the human cancer cell lines used were CFAPC- 1 (pancreatic adenocarcinoma); NCI-H460 (large cell lung); HL-60 (acute promyelocytic leukaemia); CACO2 (colorectal adenocarcinoma); HCT-116 (colorectal carcinoma); K562 (chronic myeloid leukaemia); MCF-7 (breast adenocarcinoma); and MRC-5 control cells (normal fibroblasts).
(§2) CFAPC-1, NCI-H460 H1975, HL-60, HCT-116, CACO2, K562, MCF-7, and MCR-5 were grown and maintained in RPMI 1640 and DMEM F12 as appropriate with 10% fetal bovine serum, 100 UI/mL penicillin–streptomycin, and cultured al 37 °C in 5% CO2 humidified atmosphere. Control cultures were treated with dimethyl sulfoxide (1%) alone at the same concentration as in the purine derivatives treatment. Cell viability was determined by trypan blue dye exclusion. Cell numbers were counted in hemocytometer by light microscopy.
(§3) Cytotoxicity assays were performed by using the MTT reduction method as described in the literature. Briefly, cancer cell lines were plated in a flat-bottom 96-wells plate at 1 × 10^4 cells per well density. Then, the cells were incubated with synthetized compounds at different concentrations (from 0.1 to 100 µM) in 200 µL of 10% fetal bovine serum-RPMI or EMEM culture medium at 37 °C for 72 h. Then, 10 µL of MTT was added at a final concentration of 0.5 mg/mL, incubated at 37 °C for 4 h, and then solubilized with 10% sodium dodecyl sulphate (SDS) in 0.1 mM HCl and incubated overnight at 37 °C. Formazan formation was measured at 570 nm in a multi-well reader (StatFax 4200).

NCI-H460 = experiment: MTT cytotoxicity assay, 72 h; format: cell-based, human; conditions: for Selectivity Index (SI) MRC-5/NCI-H460: IC50 in MRC-5 / IC50 in NCI-H460
Protocol: as §1, §2, §3

K562 = experiment: MTT cytotoxicity assay, 72 h; format: cell-based, human; conditions: for IC50: Homo sapiens, K562, 72 h, MTT, 72 h, IC50 ± SD; for Selectivity Index (SI) MRC-5/K562: IC50 in MRC-5 / IC50 in K562
Protocol: as §1, §2, §3

MCF-7 = experiment: MTT cytotoxicity assay, 72 h; format: cell-based, human; conditions: for IC50: Homo sapiens, MCF7, 72 h, MTT, 72 h, IC50 ± SD; for Selectivity Index (SI) MRC-5/MCF-7: IC50 in MRC-5 / IC50 in MCF-7
Protocol: as §1, §2, §3

HCT-116 = experiment: MTT cytotoxicity assay, 72 h; format: cell-based, human; conditions: Homo sapiens, HCT-116, IC50 ± SD
Protocol: as §1, §2, §3

CFPAC-1 = experiment: MTT cytotoxicity assay, 72 h; format: cell-based, human; conditions: Homo sapiens, CFPAC-1, IC50 ± SD
Protocol: as §1, §2, §3

MRC-5 = experiment: MTT cytotoxicity assay, 72 h, normal control cells; format: cell-based, human; conditions: Homo sapiens, MRC5, IC50 ± SD, normal fibroblasts
Protocol: as §1, §2, §3

HL-60 cells = experiment: Cell viability by propidium iodide flow cytometry; format: cell-based, human; conditions: HL-60, 50 μM, 24 h, PI staining
Source text: Next, in order to determinate the cell death type induced by the most promising compounds, we performed a flow cytometry analysis of cell viability in cell line HL-60 treated with the most promising compounds (selected according to their IC50 values and SI). The HL-60 cancer cells were chosen due to their sensitivity to prepared compounds. […] As a preliminary apoptosis filter, propidium iodide (PI) staining was used through flow cytometry analysis which discriminated a population of viable cells impermeable to PI (PI negative) from necrotic cells PI-permeable (PI positive) and apoptotic cells (the difference of the previous two). The results are shown in Figure 7, illustrating that all purine derivatives tested induced apoptosis on HL-60 cells. Around 40% of apoptotic cells were detected in a culture treated with compounds 7a and 7i, 30% by 7e, 7g, and 7h and 70% by 7d and 7j. […] (For dot plots, see Supplementary Information Figures S1–S3.)
Cell viability was analyzed by flow cytometry as previously described. In this assay, after setting the baseline to exclude cell debris, cells impermeable to propidium iodide (PI negative) are considered as viable. Two populations of PI-permeable dead cells are distinguished based on fluorescence intensity, corresponding to either hypodiploid apoptotic cells or necrotic cells with intact DNA. Here, HL60 cells were incubated with concentrations of 50 µM of each compound for 24 h at 37 °C. Cells were harvested and stained with 10 µg/mL of propidium iodide to determine cell viability. Samples containing roughly 1 × 10^4 cells were evaluated by flow cytometry (FACScanto II; Becton Dickinson, Mountain View, CA) and analyzed using FCS Express v6 software. Three independent biological replicates were performed.

[1] = Homo sapiens, HL-60, 72 h, MTT, 72 h, IC50 ± SD, read-out: IC50 HL-60
[2] = Homo sapiens, NCI-H460, 72 h, MTT, 72 h, IC50 ± SD, read-out: IC50 NCI-H460
[3] = Homo sapiens, HL-60, -logIC50 in molar concentration, Table S1, read-out: Experimental pIC50 (HL-60) (converted)
[4] = Homo sapiens, NCI-H460, -logIC50 in molar concentration, Table S2, read-out: Experimental pIC50 (NCI-H460) (converted)
[5] = MTT, 72 h, IC50 ± SD, read-out: IC50 NCI-H460

Row | Structure (SMILES) | IC50 (CACO2) [µM] | IC50 (HL-60; [1]) [µM] | IC50 (NCI-H460; [2]) [µM] | IC50 (K562) [µM] | IC50 (MCF-7) [µM] | IC50 (HCT-116) [µM] | IC50 (CFPAC-1) [µM] | IC50 (MRC-5) [µM] | melting point [°C] | IC50 (HL-60; [3]) [µM] | Selectivity Index (SI) MRC-5/HL-60 (HL-60) | IC50 (HL-60; MTT, 72 h, IC50 ± SD, read-out: IC50 HL-60) [µM] | IC50 (NCI-H460; [4]) [µM] | Selectivity Index (SI) MRC-5/NCI-H460 (NCI-H460) | IC50 (NCI-H460; [5]) [µM] | Selectivity Index (SI) MRC-5/K562 (K562) | Selectivity Index (SI) MRC-5/MCF-7 (MCF-7) | apoptotic cells (HL-60 cells)
1 | CCn1cnc2c(-c3ccc(OC(F)(F)F)cc3)nc(NC3CCCC3)nc21 [4a, N-cyclopentyl-9-ethyl-6-(4-(trifluoromethoxy)phenyl)-9H-purin-2-amine] | > 100 | 38 ± 3 | > 100 | > 25 | > 25 | > 50 | > 100 | > 100 | 85 to 87 | – | – | – | – | – | – | – | – | –
2 | CCCCn1cnc2c(-c3ccc(OC(F)(F)F)cc3)nc(NC3CCCCCC3)nc21 [4i, 9-Butyl-N-cycloheptyl-6-(4-(trifluoromethoxy)phenyl)-9H-purin-2-amine] | > 100 | 19 ± 3.9 | > 100 | > 25 | > 25 | > 50 | > 100 | > 100 | 72 to 74 | 19 | – | – | – | – | – | – | – | –
3 | CCCCCn1cnc2c(-c3ccc(OC(F)(F)F)cc3)nc(NC3CCCCCC3)nc21 [4j, N-cycloheptyl-9-pentyl-6-(4-(trifluoromethoxy)phenyl)-9H-purin-2-amine] | > 100 | < 6 | > 100 | > 25 | > 25 | > 50 | > 100 | > 100 | 50 to 53 | 6 | > 16.7 | 6 ± 0.8 | – | – | – | – | – | –
4 | CCCCCCn1cnc2c(-c3ccc(OC(F)(F)F)cc3)nc(NC3CCCCCC3)nc21 [4k, N-cycloheptyl-9-Hexyl-6-(4-(trifluoromethoxy)phenyl)-9H-purin-2-amine] | > 100 | 12 ± 0.6 | > 100 | > 25 | > 25 | > 50 | > 100 | > 100 | 68 to 70 | 12 | – | – | – | – | – | – | – | –
5 | CCCCCn1cnc2c(-c3ccc(OC(F)(F)F)cc3)nc(N3CCC(c4ccccc4)CC3)nc21 [4t, 9-Pentyl-2-(4-phenylpiperidin-1-yl)-6-(4-(trifluoromethoxy)phenyl)-9H-purine] | > 100 | > 50 | > 100 | > 25 | > 25 | > 50 | > 100 | > 100 | 150 to 153 | – | – | – | – | – | – | – | – | –
6 | O=[N+]([O-])c1ccc(N2CCN(c3nc(Cl)nc4c3ncn4C3CCCC3)CC2)nc1 [7a, 2-Chloro-9-cyclopentyl-6-(4-(5-nitropyridin-2-yl)piperazin-1-yl)-9H-purine] | > 100 | – | < 10 | 0.87 ± 0.01 | 0.95 ± 0.14 | 6.4 ± 1.3 | > 100 | > 100 | – | 2.1 | > 47.6 | – | 5.73 | > 17.5 | 5.73 ± 0.37 | > 115 | > 105 | Around 40%
7 | Clc1nc(N2CCN(c3cnccn3)CC2)c2ncn(C3CCCC3)c2n1 [7d, 2-Chloro-9-cyclopentyl-6-(4-(pyrazin-2-yl)piperazin-1-yl)-9H-purine] | > 100 | 4.6 ± 0.2 | 8.25 ± 0.11 | 5.86 ± 1.06 | > 12.5 | > 50 | > 100 | 17 ± 1 | – | 4.6 | 3.7 | – | 8.25 | 2.0 | – | 2.9 | – | ~70%
8 | Clc1nc(N2CCN(c3ccncc3)CC2)c2ncn(C3CCCC3)c2n1 [7i, 2-Chloro-9-cyclopentyl-6-(4-(pyridin-4-yl)piperazin-1-yl)-9H-purine] | > 100 | 3.8 ± 1.5 | < 10 | 9.96 ± 0.93 | 22 ± 1 | > 50 | > 100 | > 100 | – | 3.8 | > 26.3 | – | 8.54 | > 11.7 | 8.54 ± 0.21 | > 10 | > 4.5 | Around 40%
9 | COc1ccc(N2CCN(c3nc(Cl)nc4c3ncn4C3CCCC3)CC2)cc1 [7j, 2-Chloro-9-cyclopentyl-6-(4-(4-methoxyphenyl)piperazin-1-yl)-9H-purine] | > 100 | 1.5 ± 0.07 | < 10 | 3.38 ± 0.71 | 6.61 ± 0.67 | > 50 | > 100 | 30 ± 1 | – | 1.5 | 20.0 | – | 7.08 | 4.2 | 7.08 ± 0.22 | 8.8 | 4.5 | ~70%

From paper PMC6981454, “Promising 2,6,9-Trisubstituted Purine Derivatives for Anticancer Compounds: Synthesis, 3D-QSAR, and Preliminary Biological Assays” (International Journal of Molecular Sciences, 2019)
